In this test the target is Prolyl hydroxylase EGLN2 (Homo sapiens, UniProt Q96KS0). The test is described as follows: Inhibitory activity against purified fusion of maltose binding with PHD1 as enzyme and […].
Prolyl hydroxylase EGLN2, sequence (Q96KS0 whole entry, the tested form may be a part): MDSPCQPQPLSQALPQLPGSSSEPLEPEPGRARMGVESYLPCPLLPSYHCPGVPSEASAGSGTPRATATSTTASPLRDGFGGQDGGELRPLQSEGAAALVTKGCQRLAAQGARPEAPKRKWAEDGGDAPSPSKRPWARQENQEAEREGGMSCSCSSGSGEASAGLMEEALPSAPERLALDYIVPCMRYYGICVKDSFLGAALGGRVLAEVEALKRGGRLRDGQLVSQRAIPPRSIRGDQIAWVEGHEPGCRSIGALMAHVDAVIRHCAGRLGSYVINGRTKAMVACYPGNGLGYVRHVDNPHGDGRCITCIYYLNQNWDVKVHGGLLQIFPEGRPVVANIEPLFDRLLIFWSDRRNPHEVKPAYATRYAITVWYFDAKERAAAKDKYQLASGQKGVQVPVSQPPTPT

`O=C(O)CC1CC(=O)N(O)C1=O` (racemic): the IC50 was determined as 1000 µM.

What is called IC50 is the point on the concentration scale where inhibition reaches its midpoint. A low value points to inhibition by little substance.

These data come from ChEMBL document CHEMBL1136705, “Analogues of dealanylalahopcin are inhibitors of human HIF prolyl hydroxylases” (Bioorg Med Chem Lett, 2003).
